From ChEMBL document CHEMBL3227976, “Synthesis of steroidal nitrosoureas with antitumor activity” (1979) come the findings set out here.

Type in all cases: functional
Details in all cases: Rattus norvegicus, 13762, sc; route subcutaneous; read-out: TGI

The subject of experiment [1] is 13762. The experiment in a line: Antitumor activity against rat 13762 cells allografted in Fischer/344 rat assessed as tumor growth inhibition at 2 mg/kg/day, sc for 10 days followed by double the dose every 2 days from day 11 to day 19 relative to vehicle-treated control.
Experiment [2] relates to 13762. The experiment in a line: Antitumor activity against rat 13762 cells allografted in Fischer/344 rat assessed as tumor growth inhibition at 10 mg/kg/day, sc for 10 days followed by double the dose every 2 days from day 11 to day 19 relative to vehicle-treated control.
Experiment [3] concerns 13762. The experiment in a line: Antitumor activity against rat 13762 cells allografted in Fischer/344 rat assessed as tumor growth inhibition at 40 mg/kg/day, sc for 10 days followed by double the dose every 2 days from day 11 to day 19 relative to vehicle-treated control.

Take `C[C@]12CC[C@@H]3c4ccc(O)cc4CC[C@H]3[C@@H]1CC[C@@H]2NC(=O)N(CCCl)N=O`: the inhibition in vivo at 2 mg/kg/day with 13762 [1] was found to be 0%. Besides, the inhibition in vivo at 10 mg/kg/day with 13762 [2] is 50%. For the same molecule, the inhibition in vivo at 40 mg/kg/day with 13762 [3] was 100%.
In the case of `O=NN(CCCl)C(=O)NC1CCCCC1` [LOMUSTINE], in the experiment with 13762 [2], the inhibition in vivo at 10 mg/kg/day was 80%.
For the molecule `C[C@]12CC[C@@H]3c4ccc(O)cc4CC[C@H]3[C@@H]1CC[C@@]2(O)CNC(=O)N(CCCl)N=O`, the inhibition in vivo at 2 mg/kg/day in the experiment with 13762 [1] was determined as 0%. The inhibition in vivo at 10 mg/kg/day in the experiment with 13762 [2] is 35%. The inhibition in vivo at 40 mg/kg/day in the experiment on 13762 [3] was found to be 85%.
For `CN(N=O)C(=O)NC[C@]1(O)CC[C@H]2[C@@H]3CCc4cc(O)ccc4[C@H]3CC[C@@]21C`, in the experiment with 13762 [1], the inhibition in vivo at 2 mg/kg/day came out at 0%. Moreover, the inhibition in vivo at 10 mg/kg/day in the experiment on 13762 [2] turned out to be 10%. Besides, in the experiment on 13762 [3], the inhibition in vivo at 40 mg/kg/day stood at 23%.
Consider `CN(N=O)C(=O)N[C@H]1CC[C@H]2[C@@H]3CCc4cc(O)ccc4[C@H]3CC[C@]12C`, for which the inhibition in vivo at 2 mg/kg/day in the experiment on 13762 [1] came to 4%. Also, the inhibition in vivo at 10 mg/kg/day with 13762 [2] worked out at 15%. The inhibition in vivo at 40 mg/kg/day in the experiment with 13762 [3] is 15%.
